The source of these data is ChEMBL document CHEMBL3860067, “Investigation of the structure activity relationship of flufenamic acid derivatives at the human TRESK channel K2P18.1” (Bioorg Med Chem Lett, 2016).

In general, Emax refers to the size of the effect at its maximum, as opposed to the concentration needed. Broadly, the EC50 is the midpoint of the concentration-response curve. Usually logD stands for the decadic logarithm of the distribution of all forms, ionised or not, between an organic phase and buffer at a given pH. High values mean higher lipophilicity, low ones lower lipophilicity. Usually IC50 stands for the concentration that inhibits the measured activity by half. High values mean weaker potency, low ones greater potency.

The target in data set [1] is T1, Potassium channel subfamily K member 18 (Homo sapiens, UniProt Q7Z418).
T1 sequence (Q7Z418 whole entry): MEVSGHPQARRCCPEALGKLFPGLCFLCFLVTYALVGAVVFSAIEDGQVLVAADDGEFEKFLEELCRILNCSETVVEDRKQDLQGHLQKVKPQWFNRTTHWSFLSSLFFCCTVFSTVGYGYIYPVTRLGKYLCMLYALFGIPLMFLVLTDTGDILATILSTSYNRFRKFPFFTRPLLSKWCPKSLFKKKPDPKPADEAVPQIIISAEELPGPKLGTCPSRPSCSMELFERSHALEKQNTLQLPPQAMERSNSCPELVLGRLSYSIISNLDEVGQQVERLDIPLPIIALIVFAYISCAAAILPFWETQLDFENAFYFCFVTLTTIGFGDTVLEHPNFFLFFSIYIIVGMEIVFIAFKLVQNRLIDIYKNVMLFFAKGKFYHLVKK
Description: Channel blocking activity at human TRESK channel expressed in HEK293 cells at 100 uM by whole cell patch clamp assay. The class given is cell-based. The following applies: hek293, 100 µM. A general note: The patch-clamp technique gives a direct electrical read-out from membranes.

Data set [2] addresses T2, Potassium channel subfamily K member 18 (Homo sapiens) (UniProt Q7Z418).
T2 sequence (whole entry): T1 sequence (Q7Z418 whole entry)
Description: (§1) Activation of human TRESK channel expressed in HEK293 cells assessed as induction of channel current by whole cell patch clamp assay. The class given is cell-based.

Data set [3] addresses T1, Potassium channel subfamily K member 18. Described as §1. The class given is cell-based.
The nature of data set [4]: Lipophilicity, log D of the compound. The following applies: octanol/water. The class given is physicochemical.
Data set [5] has as its target T2, Potassium channel subfamily K member 18 (Homo sapiens). The experiment in a line: (§2) Activation of human TRESK channel relative to control.
Data set [6] deals with T1, Potassium channel subfamily K member 18. The description is as §2.
The target of data set [7] is T2, Potassium channel subfamily K member 18 (Homo sapiens). The experiment in a line: Activation of human TRESK channel expressed in HEK293 cells assessed as induction of channel current at 100 uM by whole cell patch clamp assay relative to control. The class given is cell-based.
In data set [8] the target is T1, Potassium channel subfamily K member 18. The experiment in a line: Channel blocking activity at human TRESK channel.

Activity calls are given as the source filed them. The rule behind the calls is not given here.

For `N#Cc1ccccc1Nc1cccc(C(F)(F)F)c1`, in data set [1], the outcome was Active.

On to `FC(F)(F)c1cccc(Nc2ccccc2-c2nnn[nH]2)c1`, for which the outcome in data set [1] was Active.

As for `CC(C)(C)c1cccc(Nc2ccccc2-c2nnn[nH]2)c1`, the Emax in data set [2] came to 102%. Also, the EC50 in data set [3] came out at 18.8 µM. For the same compound, in data set [4], the log distribution coefficient (logD) amounted to 2.7.

In data set [5], `c1ccc(-c2nnn[nH]2)c(Nc2cccc3c2CCCC3)c1` returned an Emax of 75%. Also, the midpoint of the response in data set [6], the EC50, lay at 6 µM.

As to `NC(=O)c1ccccc1Nc1cccc(C(F)(F)F)c1`, the outcome in data set [1] was Active.

Consider `CCCCc1cccc(Nc2ccccc2C(=O)O)c1`, for which, in data set [7], the result was Active.

Consider `CC(C)(C)c1cccc(Nc2ccccc2C(=O)O)c1`, for which the Emax in data set [2] amounted to 354%. For the same compound, the EC50 in data set [3] was found to be 45 µM. Also, the logD in data set [4] amounted to 3.2.

As to `O=C(O)c1ccccc1Nc1cccc2c1CCCC2`, the outcome in data set [1] was Active.

For the compound `O=C(O)c1ccccc1Nc1cccc(C(F)(F)F)c1` [FLUFENAMIC ACID], the EC50 in data set [3] is 474 µM; in data set [6] it was over 100 µM. Also, the logD in data set [4] was 2.2.

As to `O=C(O)c1ccccc1Nc1cccc(Oc2ccccc2)c1`, the outcome in data set [1] was Active.

`CCN(CC)CC(=O)Nc1c(C)cccc1C` [LIDOCAINE] displayed an IC50 in data set [8] of over 100 µM.

With `Cc1cc(C)c(Nc2ccccc2C(=O)O)c(C)c1`, the outcome in data set [1] was Active.

On to `O=C(O)c1ccccc1Nc1cccc(-c2ccccc2)c1`, for which the result in data set [1] was Active.
